In the NIST ThermoML archive (doi:10.1016/j.fluid.2007.01.001):

Assay: xn = mol fraction of the nth substance listed
Settings: 101 kPa, Liquid; for viscosity: Capillary tube (Ostwald / Ubbelohde) method; for speed of sound: Frequency=2 MHz, Linear variable-path acoustic interferometer; for mass density: Pycnometric method

CCCCCC(C)O (stereo not given) [2-heptanol] + Cc1ccccc1
Settings | mass density, 298.15 K [kg/m3] | mass density, 308.15 K [kg/m3] | speed of sound, 298.15 K [m/s] | speed of sound, 308.15 K [m/s] | viscosity, 298.15 K [mPa·s] | viscosity, 308.15 K [mPa·s]
x2 = 0 | 813.74 | 804.88 | 1314 | 1274 | 5.088 | 3.683
x2 = 0.0514 | 815.49 | 806.49 | 1309 | 1267 | 4.335 | 3.171
x2 = 0.1014 | 817.27 | 808.2 | 1303 | 1261 | 3.878 | 2.776
x2 = 0.1469 | 818.88 | 809.75 | 1298 | 1256 | 3.392 | 2.459
x2 = 0.2008 | 820.83 | 811.62 | 1293 | 1251 | 2.918 | 2.155
x2 = 0.2519 | 822.7 | 813.37 | 1288 | 1246 | 2.526 | 1.875
x2 = 0.3007 | 824.54 | 815.12 | 1283 | 1243 | 2.195 | 1.665
x2 = 0.348 | 826.33 | 816.85 | 1279 | 1238 | 1.9 | 1.485
x2 = 0.4006 | 828.45 | 818.86 | 1276 | 1235 | 1.622 | 1.332
x2 = 0.4526 | 830.61 | 820.97 | 1272 | 1232 | 1.396 | 1.199
x2 = 0.5002 | 832.62 | 822.92 | 1271 | 1230 | 1.24 | 1.078
x2 = 0.5501 | 834.9 | 825.13 | 1269 | 1229 | 1.064 | 0.992
x2 = 0.6011 | 837.36 | 827.5 | 1268 | 1228 | 0.931 | 0.904
x2 = 0.6574 | 840.16 | 830.22 | 1268 | 1229 | 0.853 | 0.818
x2 = 0.7011 | 842.5 | 832.53 | 1269 | 1230 | 0.778 | 0.756
x2 = 0.756 | 845.59 | 835.62 | 1273 | 1234 | 0.741 | 0.679
x2 = 0.8 | 848.22 | 838.25 | 1276 | 1238 | 0.691 | 0.641
x2 = 0.854 | 851.69 | 841.71 | 1283 | 1243 | 0.65 | 0.57
x2 = 0.9009 | 854.88 | 844.95 | 1289 | 1250 | 0.611 | 0.518
x2 = 0.9475 | 858.12 | 848.5 | 1296 | 1258 | 0.589 | 0.501

CCCCC(C)O (stereo not given) [2-hexanol] + Cc1ccccc1
Settings | mass density, 298.15 K [kg/m3] | mass density, 308.15 K [kg/m3] | speed of sound, 298.15 K [m/s] | speed of sound, 308.15 K [m/s] | viscosity, 298.15 K [mPa·s] | viscosity, 308.15 K [mPa·s]
x2 = 0 | 810.84 | 801.75 | 1290 | 1255 | 4.105 | 2.92
x2 = 0.0497 | 812.91 | 803.69 | 1286 | 1251 | 3.548 | 2.566
x2 = 0.1007 | 815.08 | 805.85 | 1284 | 1245 | 3.087 | 2.273
x2 = 0.1588 | 817.53 | 808.16 | 1281 | 1243 | 2.741 | 1.935
x2 = 0.1993 | 819.29 | 809.89 | 1278 | 1240 | 2.427 | 1.703
x2 = 0.252 | 821.5 | 812.03 | 1274 | 1237 | 2.11 | 1.519
x2 = 0.2999 | 823.59 | 813.99 | 1270 | 1235 | 1.849 | 1.303
x2 = 0.3495 | 825.77 | 816.07 | 1269 | 1232 | 1.619 | 1.153
x2 = 0.4016 | 828.16 | 818.34 | 1267 | 1230 | 1.439 | 1.046
x2 = 0.4468 | 830.21 | 820.35 | 1265 | 1229 | 1.318 | 0.962
x2 = 0.5012 | 832.7 | 822.9 | 1265 | 1228 | 1.165 | 0.85
x2 = 0.5502 | 835.1 | 825.27 | 1264 | 1228 | 1.061 | 0.794
x2 = 0.6003 | 837.61 | 827.79 | 1263 | 1228 | 0.953 | 0.766
x2 = 0.6492 | 840.23 | 830.36 | 1267 | 1229 | 0.92 | 0.689
x2 = 0.7008 | 843.05 | 833.28 | 1268 | 1230 | 0.866 | 0.671
x2 = 0.7476 | 845.75 | 835.92 | 1271 | 1232 | 0.84 | 0.611
x2 = 0.8006 | 848.93 | 839.1 | 1276 | 1237 | 0.762 | 0.579
x2 = 0.8502 | 852.09 | 842.25 | 1280 | 1242 | 0.686 | 0.561
x2 = 0.8945 | 855.01 | 845.2 | 1286 | 1249 | 0.649 | 0.531
x2 = 0.9407 | 858.09 | 848.38 | 1294 | 1257 | 0.638 | 0.527

CCCCCCC(C)O (stereo not given) [2-octanol] + Cc1ccccc1
Settings | mass density, 298.15 K [kg/m3] | mass density, 308.15 K [kg/m3] | speed of sound, 298.15 K [m/s] | speed of sound, 308.15 K [m/s] | viscosity, 298.15 K [mPa·s] | viscosity, 308.15 K [mPa·s]
x2 = 0 | 817.08 | 809.89 | 1328 | 1292 | 6.429 | 4.365
x2 = 0.0494 | 818.49 | 811.13 | 1323 | 1285 | 5.547 | 3.837
x2 = 0.0991 | 819.89 | 812.4 | 1317 | 1280 | 4.813 | 3.373
x2 = 0.1497 | 821.39 | 813.76 | 1313 | 1274 | 4.186 | 2.975
x2 = 0.1999 | 822.91 | 815.11 | 1306 | 1268 | 3.559 | 2.563
x2 = 0.2511 | 824.47 | 816.48 | 1299 | 1261 | 3.069 | 2.264
x2 = 0.2996 | 826.03 | 817.85 | 1294 | 1257 | 2.652 | 1.986
x2 = 0.354 | 827.83 | 819.46 | 1289 | 1250 | 2.239 | 1.685
x2 = 0.3998 | 829.43 | 820.91 | 1285 | 1247 | 1.966 | 1.488
x2 = 0.4469 | 831.12 | 822.49 | 1279 | 1243 | 1.69 | 1.276
x2 = 0.5 | 833.15 | 824.35 | 1277 | 1239 | 1.462 | 1.121
x2 = 0.5509 | 835.22 | 826.29 | 1273 | 1235 | 1.263 | 1.004
x2 = 0.5995 | 837.33 | 828.32 | 1271 | 1234 | 1.104 | 0.912
x2 = 0.6486 | 839.67 | 830.43 | 1270 | 1232 | 0.947 | 0.836
x2 = 0.701 | 842.33 | 832.94 | 1270 | 1233 | 0.88 | 0.77
x2 = 0.7477 | 844.88 | 835.37 | 1271 | 1234 | 0.791 | 0.707
x2 = 0.7989 | 847.89 | 838.32 | 1273 | 1237 | 0.716 | 0.649
x2 = 0.8513 | 851.18 | 841.6 | 1278 | 1241 | 0.628 | 0.569
x2 = 0.9 | 854.46 | 844.93 | 1286 | 1247 | 0.636 | 0.573
x2 = 0.9511 | 858.12 | 848.66 | 1294 | 1255 | 0.574 | 0.506
